# System: MLKL phosphorylation (pMLKL) in HT29-L23 cells
# Assay: MLKL Phosphorylation High-Content Assay
# Type: cell-based
# Details: Homo sapiens, 6 h, necroptosis induced with human TNFα, SMAC mimetic and Z-VAD, read-out: LE pMLKL HC IC50
# Protocol: Following 6 h incubation at 37° C. […] MLKL phosphorylation was detected using anti-MLKL (phospho […]) antibody (Abcam #ab187091) (1:1000 dilution in Blocking Buffer [PBS supplemented with 0.1% BSA]) with ON incubation at 4° C. […] Following another three cycles of washes in PBS, the microplates were sealed, and cellular images were acquired in the Cellomics ArrayScan VTI high-content imager equipped with an X1 camera. […] The image sets were analyzed using the Compartmental Analysis Bioapplication software (Cellomics). The level of MLKL phosphorylation was quantified as […].
row,Compound,IC50 [nM]
1,"COc1ccc(OCCC(F)(F)C(C)(O)c2ccc(F)cc2)c(F)c1-c1ccn2nc(N)nc2c1 (racemic) [Example 22, 5-(3-(2-amino-[1,2,4]triazolo[1,5-a]pyridin-7-yl)-2-fluoro-4-methoxyphenoxy)-3,3-difluoro-2-(4-fluorophenyl)pentan-2-ol]",0.9
2,"Cc1ccc(-c2ccn3nc(N)nc3c2)c(F)c1OCCC(F)(F)C(O)c1ccc(F)cc1 (racemic) [Example 66, 4-(3-(2-amino-[1,2,4]triazolo[1,5-a]pyridin-7-yl)-2-fluoro-6-methylphenoxy)-2,2-difluoro-1-(4-fluorophenyl)butan-1-ol]",0.3
3,"Nc1nc2cc(-c3cccc(OCCC(F)(F)C(O)c4ccccc4)c3F)ccn2n1 (racemic) [Example 69, 4-(3-(2-amino-[1,2,4]triazolo[1,5-a]pyridin-7-yl)-2-fluorophenoxy)-2,2-difluoro-1-phenylbutan-1-ol]",3
4,"Nc1nc2cc(-c3cccc(OCCC(F)(F)C(O)c4ccc(Cl)cc4)c3F)ccn2n1 (racemic) [Example 70, 4-(3-(2-amino-[1,2,4]triazolo[1,5-a]pyridin-7-yl)-2-fluorophenoxy)-1-(4-chlorophenyl)-2,2-difluorobutan-1-ol]",1
5,"CC(O)(c1ccc(F)cc1)C(F)(F)CCOc1cccc(-c2ccn3nc(N)nc3c2)c1F (racemic) [Example 73, 5-(3-(2-amino-[1,2,4]triazolo[1,5-a]pyridin-7-yl)-2-fluorophenoxy)-3,3-difluoro-2-(4-fluorophenyl)pentan-2-ol]",0.5
6,"CC(O)(c1ccc(F)cc1)C(F)(F)CCOc1cnc(Cl)c(-c2ccn3nc(N)nc3c2)n1 (racemic) [Example 81, 5-((6-(2-amino-[1,2,4]triazolo[1,5-a]pyridin-7-yl)-5-chloropyrazin-2-yl)oxy)-3,3-difluoro-2-(4-fluorophenyl)pentan-2-ol]",0.2
7,"CC(C)CC(O)C(F)(F)CCOc1cccc(-c2ccn3nc(N)nc3c2)c1F (single isomer, unassigned) [Example 6, 1-(3-(2-amino-[1,2,4]triazolo[1,5-a]pyridin-7-yl)-2-fluorophenoxy)-3,3-difluoro-6-methylheptan-4-ol]",80

# Same assay, conditions: necroptosis induced with human TNFα, SMAC mimetic and Z-VAD, 6 h, read-out: LE pMLKL HC IC50
row,Compound,IC50 [nM]
1,"CC(O)(c1ccc(F)cc1)C(F)(F)CCOc1c(Cl)ccc(-c2ccn3nc(N)nc3c2)c1F (single isomer, unassigned) [Example 5, 5-(3-(2-amino-[1,2,4]triazolo[1,5-a]pyridin-7-yl)-6-chloro-2-fluorophenoxy)-3,3-difluoro-2-(4-fluorophenyl)pentan-2-ol]",150
2,"CC(C)CC(O)C(F)(F)CCOc1cccc(-c2ccn3nc(N)nc3c2)c1F (single isomer, unassigned) [Example 7, 1-(3-(2-amino-[1,2,4]triazolo[1,5-a]pyridin-7-yl)-2-fluorophenoxy)-3,3-difluoro-6-methylheptan-4-ol]",160
3,"CC(O)(c1ccc(F)cc1)C(F)(F)CCOc1ccc(F)c(-c2ccn3nc(N)nc3c2)c1F (single isomer, unassigned) [Example 8, 5-(3-(2-amino-[1,2,4]triazolo[1,5-a]pyridin-7-yl)-2,4-difluorophenoxy)-3,3-difluoro-2-(4-fluorophenyl)pentan-2-ol]",9
4,"CC(O)(c1ccc(F)cc1)C(F)(F)CCOc1ccc(F)c(-c2ccn3nc(N)nc3c2)c1F (single isomer, unassigned) [Example 9, 5-(3-(2-amino-[1,2,4]triazolo[1,5-a]pyridin-7-yl)-2,4-difluorophenoxy)-3,3-difluoro-2-(4-fluorophenyl)pentan-2-ol]",0.1
5,"CC(O)(c1ccc(F)cc1)C(F)(F)CCOc1cc(F)cc(-c2ccn3nc(N)nc3c2)c1F (single isomer, unassigned) [Example 10, 5-(3-(2-amino-[1,2,4]triazolo[1,5-a]pyridin-7-yl)-2,5-difluorophenoxy)-3,3-difluoro-2-(4-fluorophenyl)pentan-2-ol]",1

# From patent publication US20260217711A1, “TRIAZOLOPYRIDINYL ETHER LINKED COMPOUNDS AS KINASE INHIBITORS” (Bristol-Myers Squibb Company, priority 2023, published 2026)
